Assays:
[1] = Crystal; visual observation
[2] = wn = mass fraction of the nth substance listed; conditions: 101 kPa, Liquid; for viscosity: Capillary tube (Ostwald / Ubbelohde) method; for mass density: Pycnometric method

[Br-].[Br-].c1cc[n+](CCCCC[n+]2ccccc2)cc1 [1,1'-(pentane-1,5-diyl)-bis(pyridinium) dibromide]
Conditions | Normal melting temperature [°C]
[1] | 198.00

CCO [ethanol] + O
[2]
Conditions | mass density, w1 = 0.1 [kg/m3] | mass density, w1 = 0.2 [kg/m3] | mass density, w1 = 0.3 [kg/m3] | mass density, w1 = 0.4 [kg/m3] | mass density, w1 = 0.5 [kg/m3] | viscosity, w1 = 0.1 [mPa·s] | viscosity, w1 = 0.2 [mPa·s] | viscosity, w1 = 0.3 [mPa·s] | viscosity, w1 = 0.4 [mPa·s] | viscosity, w1 = 0.5 [mPa·s]
293.15 K | 981.8 | 968.2 | 953.6 | 935.5 | 913.9 | 1.538 | 2.183 | 2.701 | 2.91 | 2.87
303.15 K | 979 | 964.1 | 947.4 | 927.2 | 905.6 | 1.16 | 1.553 | 1.87 | 2.02 | 2.022
313.15 K | 974.6 | 958.7 | 940.3 | 919.8 | 897.6 | 0.9068 | 1.16 | 1.368 | 1.482 | 1.499
